Residues, ends and D or L forms follow the SMILES beside them.
Assays:
[1] = test system: old rats' spleen explants; test: Development of spleen explants taken from old rats (area index); type: cell-based; conditions: 10 ng/ml
Method: The experiments were staged on 35 fragments of the thymus and 45 fragments of the spleen taken from rats aged 24 months. Nutritional medium for cultivation consisted of 35% Eagle's solution, 25% calf fetal serum, 35% Hanx solution, 5% chicken embryonic extract, with the addition of glucose (0.6%), insulin (0.5 U/ml), penicillin (100 U/ml), glutamin (2 mM). […]
Peptide H-Glu-Asp-Pro-OH was added into the experimental medium in concentrations of 0.5, 10 and 100 ng/ml.
Area index (AI)—the ratio of total explant area including the growth zone to the initial area of thymus or spleen fragment was used as a criterion for measuring the biological activity. AI values were expressed in percent, control AI value being taken as 100%.

[2] = test system: peritoneal macrophages; test: Production of lymphocyte activation factors (LAF) by peritoneal macrophages; type: cell-based, mice
Source text: The peculiarities of LAF production by peritoneal macrophages in young and ageing mice, as well as the influence of peptide H-Glu-Asp-Pro-OH on this index were studied. LAF activity of the macrophages was estimated judging by their ability to exert a comitogenic effect on the proliferation of thymocytes, stimulated by suboptimal lectin doses in vitro.
The same tendency to the change in LAF production by macrophages was observed under the effect of peptide H-Glu-Asp-Pro-OH in young mice, but not in the whole range of studied concentrations.

[3] = test system: rat thymus cells; test: Premature aging induced by ionizing irradiation: rat thymus morphology and morphometry; type: in vivo, Wistar rats
Method: The experiments were conducted on 40 male Wistar rats 2 months old, weighing 180-210 g. Premature aging was modeled by gamma irradiation using LUCH-1 machine (source 60Co; dose output 17.166×10^−4 Gy/sec.). The animals were irradiated in the dose of 6 Gy daily for 5 days. All the animals were divided into 6 groups:
2 and 2a—irradiated rats;
3 and 3a—irradiated rats, subjected to subcutaneous injection of peptide H-Glu-Asp-Pro-OH in the dose of 0.5 μg per animal in 0.25 ml of sterile 0.9% NaCl solution in 24 hours after the first performance of irradiation for 10 days.
Animals of the 2 and 2a group received 0.9% NaCl solution in the same volume and following the same scheme. Slaughtering of the animals and extraction of their thymus were conducted using nembutal anaesthesia (50 mg/kg). Thymus in groups 1-3 was extracted on the 14th day after the experiment onset, in the 1a-3a groups—on the 21 day after the experiment onset.
Fragments of the extracted thymus were fixed for 24 hours in Buen sour liquid for optic microscopy. Material dehydration and filling it in with paraffin for optic microscopy were conducted according to conventional techniques. Paraffin sections (7 μm) were placed on a microscope slide covered with a poly-L-lysine film (Sigma). Histological and immunohistochemical examinations were carried out using Jenamed-2 microscope (Zeiss).
Review staining of the preparations was conducted by hematoxylin-eosin. Mast cells were selectively stained using 1% toluidine blue (Fluka) solution in 0.5M HCl with pH 0.5.
For electron microscopy fragments of the extracted thymus were fixed according to Karnovsky's method. […]
The morphometric studies were conducted by means of the system for computer analysis of microscopic images Imstar using Morphostar and Colquant-2 software, in accordance with the basic principles of stereology and morphometry. […] Proliferative activity index (IPCNA) was calculated using the following formula: IPCNA(%)=NPCNA/Nnuclei×100.

[4] = test system: male guinea pigs; conditions: guinea pig, in vivo
Method: Common toxicity of H-Glu-Asp-Pro-OH was studied according to the requirements stated in the “Manual for experimental (pre-clinical) study of new pharmacological substances” (2005): acute toxicity in case of single administration of the substance and sub-acute and chronic toxicity in case of long-term administration of the peptide.
The study of acute toxicity was performed on 60 white mongrel male mice with body weight of 18-21 g. The animals were randomly subdivided into 6 equal groups. The substance was administered to the animals once, intramuscularly, in the doses of 1 mg/kg, 2 mg/kg, 3 mg/kg, 4 mg/kg, 5 mg/kg in 0.25 ml of sterile 0.9% NaCl solution. The control animals received 0.9% NaCl solution in the same volume. The study of subacute toxicity was performed on 50 white mongrel male rats with body weight of 170-210 g. Experimental animals received the substance daily, intramuscularly for 90 days in the doses of 1 μg/kg, 0.1 mg/kg, 1 mg/kg in 0.5 ml of sterile 0.9% NaCl solution. […] Upon completion of the experiment biochemical and coagulologic indices of the blood were also evaluated. […] Traditional methods were used for the evaluation of the following indices of the animals' peripheric blood: the quantity of erythrocytes, hemoglobin, reticulocytes, thrombocytes, leukocytes, leukocyte formula, erythrocyte sedimentation rate (ESR), erythrocyte resistance. […]

[5] = ageing mice 19-20 months, 0.5 to 500 ng/ml
[6] = group 3: irradiated rats, 0.5 μg per animal s.c. for 10 days, 14th day

Compound: N[C@@H](CCC(=O)O)C(=O)N[C@@H](CC(=O)O)C(=O)N1CCC[C@H]1C(=O)O [Peptide H-Glu-Asp-Pro-OH, glutamyl-aspartyl-proline] (H-Glu-Asp-Pro-OH)
- Stimulating effect on spleen explants at longer term ([1]; 7th day): still visible, although it was less pronounced
- Area index (AI) in spleen explants, increase ([1]; rats aged 24 months): 28%
- LAF production by non-stimulated peritoneal macrophages [2, 5]: induces the production of LAF
- LAF production under the effect of LPS [2, 5]: increases the production of LAF
- Change in LAF production by macrophages ([2]; young mice 2 months, not in the whole range of studied concentrations): same tendency
- Number of mast cells in the thymus [3, 6]: 32±5 per 1 mm^2
- Proliferative activity index (IPCNA) in the thymus [3, 6]: 55%
- Involution changes of the thymus (microscopic analysis) vs irradiated groups 2 and 2a ([3]; groups 3, 3a: irradiated rats, 0.5 μg per animal s.c., 14th and 21st day): less pronounced involution changes
- Changes in blood morphology, biochemical indices, ESR, erythrocyte resistance [4]: no statistically significant changes
